Source: patent US9375497B2, “[F-18]-labeled L-glutamic acid, [F-18]-labeled L-glutamine, derivatives thereof and use thereof and processes for their preparation” (BAYER SCHERING PHARMA AKTIENGESELLSCHAFT, priority 2006, dated 2016)

What was measured:
[1] = tested on: A549 (non-small-cell bronchial carcinoma) cells; assay: Tumor cell uptake in A549 cells; type: cell-based, human; conditions: 250 kBq/well, compared to [^18F]FDG
Description: (§1) For the evaluation of the tumor cell uptake of [^18F]glutamic acid, cell uptake experiments were carried out in human A549 (non-small-cell bronchial carcinoma) and HT29 (colonic carcinoma) cells. The tumor cell uptake of the glutamic acid derivatives was compared to
(§2) [^18F]FDG (gold standard for oncological PET investigations).
FIG. 2: Comparison of the time-dependent tumor cell uptake of [^18F]-4-glutamic acid [20-35 μM] (on the left) and [F-18]FDG [2 μM] (on the right) in A549 cells. The cells were incubated with 250 kBq/well. For displacement experiments, L-glutamic acid (1 mM) or glucose (5 mM) was used (mean value±standard deviation, n=3).

[2] = tested on: HT29 (colonic carcinoma) cells; assay: Tumor cell uptake in HT29 cells; type: cell-based, human; conditions: compared to [^18F]FDG
Description: as §1, §2

[3] = tested on: murine B16F1 melanoma model in C57BI6 mice; assay: Tumor enrichment and tissue distribution, B16F1 melanoma model; conditions: for Tumor/tissue quotient, Blood / Tumor/tissue quotient, Brain / Tumor/tissue quotient, Fat / Tumor/tissue quotient, Heart / Tumor/tissue quotient, Intestine / Tumor/tissue quotient, Kidney / Tumor/tissue quotient, Liver / Tumor/tissue quotient, Lung / Tumor/tissue quotient, Muscle / Tumor/tissue quotient, Ovary / Tumor/tissue quotient, Skin / Tumor/tissue quotient, Spleen / Tumor/tissue quotient, Stomach / Tumor/tissue quotient, Uterus: single i.v.; for Tissue uptake, Blood / Tissue uptake, Brain / Tissue uptake, Fat / Tissue uptake, Heart / Tissue uptake, Intestine / Tissue uptake, Kidney / Tissue uptake, Liver / Tissue uptake, Lung / Tissue uptake, Muscle / Tissue uptake, Ovary / Tissue uptake, Skin / Tissue uptake, Spleen / Tissue uptake, Stomach / Tissue uptake, Tumor / Tissue uptake, Uterus: single i.v. 370 kBq; for tumor/blood quotient / tumor/blood quotient, factor higher than for [^14C]5-glutamic acid / tumor/liver quotient / tumor/liver quotient, factor higher than for [^14C]5-glutamic acid: B16F1 melanoma model
Description: For the evaluation of the tumor enrichment and the tissue distribution in experimental animals, [^18F]-4-glutamic acid was tested in a murine F9 teratocarcinoma model in NMRI nude mice and a murine B16F1 melanoma model in C57BI6 mice.
For this, 1×10^6 cells (F9) or 5×10^5 cells (B16F1) respectively were suspended in 100 μl of phosphate-buffered physiological saline solution and inoculated subcutaneously into the right, rear flank of the corresponding experimental animal species (NMRI for F9 and 057-BI6 for B16F1) (Berndorff et al. Clin. Cancer Res. 2005, 11, 2005). […] [^18F]-4-Glutamic acid (370 kBq, in 100 μl of physiological saline solution) was administered intravenously to the tail vein. After 15; 60 and 120 min in each case, the animals were killed, organ and tumor removed, weighed and measured for radioactive content.

## NC(CC([18F])C(=O)O)C(=O)O (stereo not drawn) [[^18F]4-glutamic acid, 4-[F-18]fluoroglutamic acid]
[1]
  tumor cell uptake: surprisingly high uptake
[2]
  tumor cell uptake: surprisingly high uptake
[3]; 0.25 h (times as Table 3)
  Tumor/tissue quotient, Blood: 1.21
  Tumor/tissue quotient, Brain: 4.89
  Tumor/tissue quotient, Fat: 3.95
  Tumor/tissue quotient, Heart: 1.06
  Tumor/tissue quotient, Intestine: 1.19
  Tumor/tissue quotient, Kidney: 0.31
  Tumor/tissue quotient, Liver: 0.93
  Tumor/tissue quotient, Lung: 0.32
  Tumor/tissue quotient, Muscle: 1.72
  Tumor/tissue quotient, Ovary: 1.03
  Tumor/tissue quotient, Skin: 1.49
  Tumor/tissue quotient, Spleen: 0.89
  Tumor/tissue quotient, Stomach: 1.05
  Tumor/tissue quotient, Uterus: 0.56
[3]; 0.25 h
  Tissue uptake, Blood: 2.93 % dose/g
  Tissue uptake, Brain: 0.73 % dose/g
  Tissue uptake, Fat: 0.92 % dose/g
  Tissue uptake, Heart: 3.36 % dose/g
  Tissue uptake, Intestine: 3.00 % dose/g
  Tissue uptake, Kidney: 11.35 % dose/g
  Tissue uptake, Liver: 3.81 % dose/g
  Tissue uptake, Lung: 11.10 % dose/g
  Tissue uptake, Muscle: 2.19 % dose/g
  Tissue uptake, Ovary: 3.57 % dose/g
  Tissue uptake, Skin: 2.43 % dose/g
  Tissue uptake, Spleen: 4.07 % dose/g
  Tissue uptake, Stomach: 3.41 % dose/g
  Tissue uptake, Tumor: 3.55 % dose/g
  Tissue uptake, Uterus: 7.17 % dose/g
[3]; 1.0 h (times as Table 3)
  Tumor/tissue quotient, Blood: 5.25
  Tumor/tissue quotient, Brain: 4.7
  Tumor/tissue quotient, Fat: 14.16
  Tumor/tissue quotient, Heart: 3.54
  Tumor/tissue quotient, Intestine: 1.56
  Tumor/tissue quotient, Kidney: 1.25
  Tumor/tissue quotient, Liver: 3.63
  Tumor/tissue quotient, Lung: 1.51
  Tumor/tissue quotient, Muscle: 4.3
  Tumor/tissue quotient, Ovary: 4.38
  Tumor/tissue quotient, Skin: 5.43
  Tumor/tissue quotient, Spleen: 2.81
  Tumor/tissue quotient, Stomach: 4.02
  Tumor/tissue quotient, Uterus: 3.84
[3]; 1.0 h
  Tissue uptake, Blood: 0.48 % dose/g
  Tissue uptake, Brain: 0.49 % dose/g
  Tissue uptake, Fat: 0.18 % dose/g
  Tissue uptake, Heart: 0.71 % dose/g
  Tissue uptake, Intestine: 1.28 % dose/g
  Tissue uptake, Kidney: 2.25 % dose/g
  Tissue uptake, Liver: 0.64 % dose/g
  Tissue uptake, Lung: 1.47 % dose/g
  Tissue uptake, Muscle: 0.53 % dose/g
  Tissue uptake, Ovary: 0.58 % dose/g
  Tissue uptake, Skin: 0.48 % dose/g
  Tissue uptake, Spleen: 0.81 % dose/g
  Tissue uptake, Stomach: 0.59 % dose/g
  Tissue uptake, Tumor: 2.14 % dose/g
  Tissue uptake, Uterus: 0.69 % dose/g
[3]; 2.0 h (times as Table 3)
  Tumor/tissue quotient, Blood: 7.93
  Tumor/tissue quotient, Brain: 3.55
  Tumor/tissue quotient, Fat: 8.85
  Tumor/tissue quotient, Heart: 5.06
  Tumor/tissue quotient, Intestine: 0.87
  Tumor/tissue quotient, Kidney: 2.22
  Tumor/tissue quotient, Liver: 4.42
  Tumor/tissue quotient, Lung: 2.34
  Tumor/tissue quotient, Muscle: 6.95
  Tumor/tissue quotient, Ovary: 3.02
  Tumor/tissue quotient, Skin: 5.94
  Tumor/tissue quotient, Spleen: 4.03
  Tumor/tissue quotient, Stomach: 4.24
  Tumor/tissue quotient, Uterus: 2.59
[3]; 2.0 h
  Tissue uptake, Blood: 0.16 % dose/g
  Tissue uptake, Brain: 0.36 % dose/g
  Tissue uptake, Fat: 0.16 % dose/g
  Tissue uptake, Heart: 0.28 % dose/g
  Tissue uptake, Intestine: 1.46 % dose/g
  Tissue uptake, Kidney: 0.57 % dose/g
  Tissue uptake, Liver: 0.29 % dose/g
  Tissue uptake, Lung: 0.56 % dose/g
  Tissue uptake, Muscle: 0.24 % dose/g
  Tissue uptake, Ovary: 0.45 % dose/g
  Tissue uptake, Skin: 0.22 % dose/g
  Tissue uptake, Spleen: 0.31 % dose/g
  Tissue uptake, Stomach: 0.30 % dose/g
  Tissue uptake, Tumor: 1.27 % dose/g
  Tissue uptake, Uterus: 0.76 % dose/g
[3]; 1 h p.i.
  tumor/blood quotient: 5.3
  tumor/blood quotient, factor higher than for [^14C]5-glutamic acid: 2
  tumor/liver quotient: 3.6
  tumor/liver quotient, factor higher than for [^14C]5-glutamic acid: 4.6
[3]; 2 h p.i.
  tumor/blood quotient: 7.9
  tumor/blood quotient, factor higher than for [^14C]5-glutamic acid: 3.5
  tumor/liver quotient: 4.4
  tumor/liver quotient, factor higher than for [^14C]5-glutamic acid: 5.5
[3]; B16F1 melanoma, 1 h after intravenous administration
  tumor enrichment: 2.14 % ID/g
[3]; B16 melanoma, after intravenous injection (15 min)
  maximal tumor enrichment: 3.55 % ID/g
